Patent publication US6949516B2, “Dipeptide apoptosis inhibitors and the use thereof” (Cytovia, Inc., priority 1997, dated 2005)

Legend:
CPP32 = target: T1, CPP32 (Homo sapiens, UniProt P42574); experiment: Fluorometric enzyme assay, CPP32; assay type: biochemical; conditions: recombinant CPP32, 37° C., 30 minutes
T1 construct: made in house; host or cells: Sf9 insect cells, baculovirus vector
T1 sequence (P42574 29-175 limits assumed): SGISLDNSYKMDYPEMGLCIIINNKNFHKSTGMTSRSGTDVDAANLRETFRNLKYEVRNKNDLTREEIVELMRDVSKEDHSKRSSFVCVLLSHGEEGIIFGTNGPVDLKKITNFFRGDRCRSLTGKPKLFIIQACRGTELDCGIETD
Procedure: (§1) The activities of Cbz-Val-Asp(OMe)-CH2F and Cbz-Val-Asp-CH2F (free acid) as inhibitors of CPP32, ICE and cathepsin B were measured in a fluorometric enzyme assay. Recombinant CPP32 protein and ICE protein were prepared by expressing DNA clones encoding these enzymes in an insect host cell (sf9 cells) using baculovirus as the vector. See, Webb, N.R. et al., “Expression of proteins using recombinant Baculovirus,” Techniques 2:173-188 (1990). Preparations of native cathepsin were acquired from a commercial source. Enzyme activity was measured using synthetic peptide substrates attached to a fluorogenic leaving group. Cleavage of the synthetic substrate by the enzyme results in a fluorescent signal which is read in a spectrofluorometer or in a fluorometric microtiter plate reader.
CPP32 activity was measured using the following buffer conditions: 100 mM HEPES pH 7.5, with 10% sucrose, 1% CHAPS, 5 mM glutathione, and 5 μM peptide substrate. The peptide substrate consisted of an oligomer with the sequence Asp-Glu-Val-Asp (SEQ ID NO:1) with the fluorogenic compound aminomethylcoumarin conjugated to the C-terminus. The assay for enzyme activity was typically carried out at 37° C. for 30 minutes.

Cathepsin B = target: T2, Cathepsin B (Homo sapiens, UniProt P07858); experiment: Fluorometric enzyme assay, cathepsin B; assay type: biochemical; conditions: native cathepsin, commercial source
T2 construct: Preparations of native cathepsin were acquired from a commercial source; purchased
Procedure: as §1

ICE = target: T3, ICE (Homo sapiens, UniProt P29466); experiment: Fluorometric enzyme assay, ICE; assay type: biochemical; conditions: recombinant ICE
T3 construct: made in house; host or cells: Sf9 insect cells, baculovirus vector
T3 sequence (P29466 120-297 limits assumed): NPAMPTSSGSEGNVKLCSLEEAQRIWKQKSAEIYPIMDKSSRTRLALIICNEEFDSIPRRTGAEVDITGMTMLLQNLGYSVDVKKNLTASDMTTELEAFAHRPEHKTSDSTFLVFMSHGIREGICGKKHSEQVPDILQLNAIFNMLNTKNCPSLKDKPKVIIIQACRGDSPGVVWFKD
Procedure: as §1

Factor Xa = experiment: Protease inhibition, Factor Xa; assay type: biochemical
Excerpt: (§2) Table I lists the IC50 of Cbz-Val-Asp(OMe)-CH2F and Cbz-Val-Asp-CH2F (free acid) for CPP32 and other proteases.

Thrombin = Thrombin (Homo sapiens, UniProt P00734); experiment: Protease inhibition, thrombin; assay type: biochemical
Excerpt: as §2

Caspase-3 = target: T4, Caspase-3 (Homo sapiens, UniProt P42574); experiment: Caspase-3 activity of the dipeptide inhibitors (Table III); assay type: biochemical
T4 sequence (P42574 29-175 limits assumed): T1 sequence (P42574 29-175 limits assumed)

[1] = test system: PARP cleavage in Jurkat cells; experiment: Effect of Z-VD-fmk on PARP cleavage in antiFas-treated Jurkat cells (Example 24); assay type: cell-based, human
Procedure: Poly(ADP)ribose polymerase (PARP) was one of the first caspase-3 substrates identified and the cleavage of PARP is still considered to be a near-universal marker for caspase-3 activation and caspase-mediated apoptosis. The ability of an anti-apoptotic compound to block PARP cleavage is therefore a useful indicator of its ability to inhibit apoptosis. The potency of Z-VD-fmk in a PARP cleavage assay was tested using antiFas-treated Jurkat cells. 2×10^6 Jurkat cells were seeded in each well of a 6-well dish and pre-incubated with test compounds for 30 minutes. The cells were then challenged with 500 ng/mL of an agonistic antiFas antibody or PBS for 4 hours. The cells were then harvested, pelleted gently, washed two times with PBS and lysed in RIPA buffer. Aliquots of the lysate were analyzed by SDS-PAGE and the proteins were transferred to PVDF membranes for Western blotting. The primary antibody was a polyclonal antiPARP serum which cross-reacts with both full-length PARP and the caspase-3-generated cleavage product.

[2] = test system: mouse liver apoptosis model; experiment: Mouse liver apoptosis model (antiFas-induced lethality); assay type: in vivo; conditions: mice
Procedure: The in vivo activity of the cell death inhibitors of the invention can be tested using the “mouse liver apoptosis” model described by Rodriguez et al. (Rodriguez et al., J. Exp. Med., 184:2067-2072 (1996)). In this model, mice are treated intravenously (IV) with an antiFas antibody which induces massive apoptosis in the liver and other organs, leading to generalized organ failure and death. This model is useful for indirectly testing the systemic bioavailability of the cell death inhibitors of the invention, as well as their in vivo anti-apoptotic properties. The cell death inhibitors of the invention therefore can be used to reduce or prevent apoptosis of liver cells (Jones et al. Hepatology 27: 1632-42 (1998)) such as in sepsis (Jaeschke et al. J. Immunol. 160: 3480-3486 (1998)) and hereditary tyrosinemia type 1 (HT1) (Kubo et al. Prov. Natl. Acad Sci. USA, 95: 9552-9557 (1998). The cell death inhibitors of the invention also can be used to treat hepatitis (Suzuki, Proc. Soc. Exp. Biol. Med. 217: 450-454 (1998)).
Three to four week old female mice were used in the studies. Liver degeneration was induced by intravenous injection with 2-6 μg of a purified hamster anti-mouse Fas monoclonal antibody (clone Jo2, Pharmingen) against mouse Fas antigen diluted in 80 μl of phosphate buffered physiological saline (Rodriguez, et al., 1996). Mortality was used as the end point to assess liver degeneration. Cbz-Val-Asp-CH2F was formulated in Tris buffer for intravenous infusion and tested at a dose of 1-10 mg/kg given IV via the tail vein. Ten minutes later, animals were injected with Fas antibody. Mortality was counted at 30 mins, 1, 3 and 24 h. For each compound there were groups of control animals that receive Fas antibody only.

Structure (SMILES)	IC50 (CPP32)	IC50 (Cathepsin B)	IC50 (ICE)	IC50 (Factor Xa)	IC50 (Thrombin)	IC50 (Caspase-3)	inhibition of PARP cleavage ([1]; 50 nM, antiFas-treated Jurkat cells)	inhibition of PARP cleavage ([1]; 250 nM, antiFas-treated Jurkat cells)	inhibition of PARP cleavage ([1]; 500 nM, antiFas-treated Jurkat cells)	potency as inhibitor of PARP cleavage in intact cells, fold relative to Z-VAD-fmk ([1]; Jurkat cells)	IC50 ([1]; antiFas-treated Jurkat cells, read-out: IC50, inhibition of PARP cleavage (whole-cell apoptosis model))	induction of the liver enzymes SPGT and SGOT ([2]; antiFas, separate studies)	protection from antiFas-induced lethality ([2]; single 1 mg/kg IV dose, up to 1 h after antibody administration)	survival ([2]; up to 24 h after antiFas)
COC(=O)CC(NC(=O)C(NC(=O)OCc1ccccc1)C(C)C)C(=O)CF (stereo not drawn) [Cbz-Val-Asp(OMe)-CH2F, Z-Val-Asp-fmk Methyl Ester]	1100 nM	300 nM	900 nM	> 100000 nM	> 100000 nM	–	–	–	–	–	–	–	–	–
CC(C)[C@H](NC(=O)OCc1ccccc1)C(=O)NC(CC(=O)O)C(=O)CF (stereo partly drawn) [Cbz-Val-Asp-CH2F, Z-Val-Asp-fmk]	43 nM	> 10000 nM	20 nM	> 100000 nM	> 100000 nM	40 nM	still retains much of its inhibitory activity	completely inhibits	completely inhibits	at least 10 fold	< 50 nM	attenuation	completely protected	28%
